Measurements from patent publication US6706663B2, “Herbicidal 3-heterocyclic substituted benzisothiazole and benzisoxazole compounds” (Wyeth, priority 2000, dated 2004).

Assays:
[1] = tested on: TRZAWR (Wheat, Winter, cv Riband); experiment: Preemergence herbicidal evaluation; type: in vivo, Triticum aestivum; settings: preemergence, rated 4-5 weeks after treatment
In short: (§1)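 Steps: mix seeds with potting soil; plant on ~1 inch soil per cup; spray compound in aqueous acetone; hold on greenhouse benches with routine watering; rate 0–9 visually against control at 4–5 weeks.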

GALAP (Galium aparine) = experiment: Preemergence herbicidal evaluation; type: in vivo; settings: preemergence, rated 4-5 weeks after treatment
In short: as §1

[2] = tested on: AMBEL (Ambrosia artemisifolia); experiment: Postemergence herbicidal evaluation; type: in vivo, L.
In short: (§2)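 Visual 0–9 injury scores versus control plants, covering stand, vigour, malformation, size, chlorosis and general appearance, taken four to five weeks post-spray and averaged over replicate tests. Plants were sprayed at roughly two weeks old and held on greenhouse benches.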

[3] = tested on: CHEAL (Chenopodium album); experiment: Postemergence herbicidal evaluation; type: in vivo, L.
In short: as §2

[4] = tested on: CASOB (Cassia obtusifolia); experiment: Postemergence herbicidal evaluation; type: in vivo, L.
In short: as §2

[5] = tested on: ABUTH (Abutilon theophrasti); experiment: Preemergence herbicidal evaluation; type: in vivo, Medic.; settings: preemergence, rated 4-5 weeks after treatment
[6] = tested on: GLXMAW (Soybean, Williams); experiment: Preemergence herbicidal evaluation; type: in vivo, Glycine max, (L.) Merr. cv Williams; settings: preemergence, rated 4-5 weeks after treatment
[7] = tested on: TRZAWR (Wheat, Winter, cv Riband); experiment: Postemergence herbicidal evaluation; type: in vivo, Triticum aestivum
In short: as §2

[8] = tested on: CYPSE (Cyperus serotinus); experiment: Flooded paddy, preemergence weed control; type: in vivo, Rottb.; settings: rated 3-4 weeks after treatment, 0-9 rating scale
In short: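 Herbicidal effect was scored visually on a 0–9 scale against an untreated control 3–4 weeks after treatment. Compounds were applied preemergence as 50/50 v/v aqueous/acetone mixtures into flood water (1.5–3 cm deep over silt loam), at roughly 0.0080 to 0.1250 kg/ha active ingredient.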

ZEAMX (Corn, Field) = experiment: Preemergence herbicidal evaluation; type: in vivo, Zea mays, L.; settings: preemergence, rated 4-5 weeks after treatment

SMILES | TRZAWR preemergence herbicidal rating ([1]; Rate 0.0620 kg/ha) | TRZAWR preemergence herbicidal rating ([1]; Rate 0.1250 kg/ha) | TRZAWR preemergence herbicidal rating ([1]; Rate 0.2500 kg/ha) | GALAP preemergence herbicidal rating (GALAP (Galium aparine); Rate 0.0620 kg/ha) | GALAP preemergence herbicidal rating (GALAP (Galium aparine); Rate 0.1250 kg/ha) | GALAP preemergence herbicidal rating (GALAP (Galium aparine); Rate 0.2500 kg/ha) | Postemergence herbicidal rating, AMBEL ([2]; rate 0.0320 kg/ha) | Postemergence herbicidal rating, AMBEL ([2]; rate 0.0620 kg/ha) | Postemergence herbicidal rating, CHEAL ([3]; rate 0.0320 kg/ha) | Postemergence herbicidal rating, CHEAL ([3]; rate 0.0620 kg/ha) | Postemergence herbicidal rating, CASOB ([4]; rate 0.0320 kg/ha) | Postemergence herbicidal rating, CASOB ([4]; rate 0.0620 kg/ha) | ABUTH preemergence herbicidal rating ([5]; Rate 0.0620 kg/ha) | ABUTH preemergence herbicidal rating ([5]; Rate 0.1250 kg/ha) | ABUTH preemergence herbicidal rating ([5]; Rate 0.2500 kg/ha) | GLXMAW preemergence herbicidal rating ([6]; Rate 0.0620 kg/ha) | GLXMAW preemergence herbicidal rating ([6]; Rate 0.1250 kg/ha) | GLXMAW preemergence herbicidal rating ([6]; Rate 0.2500 kg/ha) | Postemergence herbicidal rating, TRZAWR ([7]; rate 0.0320 kg/ha) | Postemergence herbicidal rating, TRZAWR ([7]; rate 0.0620 kg/ha) | also measured
CC1CCOC(c2nsc3ccc(-n4c(=O)cc(C(F)(F)F)n(C)c4=O)cc23)O1 (stereo not shown) [Compound 37, 1-methyl-3-[3-(4-methyl-m-dioxan-2-yl)-1,2-benzisothiazol-5-yl]-6-(trifluoromethyl)uracil] | 9.0 | 9.0 | 9.0 | 5.0 | 9.0 | 9.0 | 9.0 | 9.0 | 5.0 | 9.0 | 4.0 | 5.0 | 9.0 | 9.0 | 9.0 | 9.0 | 9.0 | 9.0 | 5.0 | 7.0 | herbicidal rating, CYPSE ([8]; rate 0.0320 kg/ha): 9.0; herbicidal rating, CYPSE ([8]; rate 0.1250 kg/ha): 9.0; ZEAMX preemergence herbicidal rating (ZEAMX (Corn, Field); Rate 0.0620 kg/ha): 9.0; ZEAMX preemergence herbicidal rating (ZEAMX (Corn, Field); Rate 0.1250 kg/ha): 9.0; ZEAMX preemergence herbicidal rating (ZEAMX (Corn, Field); Rate 0.2500 kg/ha): 9.0
Cc1nnc(-c2nsc3ccc(-n4c(=O)cc(C(F)(F)F)n(C)c4=O)cc23)s1 [Compound 17, 1-methyl-3-[3-(5-methyl-1,3,4-thiadiazol-2-yl)-1,2-benzisothiazol-5-yl]-6-(trifluoromethyl)uracil] | 0.0 | 0.0 | 5.0 | 7.0 | 9.0 | 9.0 | 4.0 | 9.0 | 3.0 | 3.0 | 0.0 | 0.0 | 9.0 | 9.0 | 9.0 | 0.0 | 3.0 | 5.0 | 3.0 | 3.0 | Postemergence herbicidal rating, AMBEL ([2]; rate 0.1250 kg/ha): 9.0; Postemergence herbicidal rating, AMBEL ([2]; rate 0.2500 kg/ha): 9.0; Postemergence herbicidal rating, CHEAL ([3]; rate 0.1250 kg/ha): 4.0; Postemergence herbicidal rating, CHEAL ([3]; rate 0.2500 kg/ha): 9.0; Postemergence herbicidal rating, CASOB ([4]; rate 0.1250 kg/ha): 2.0; Postemergence herbicidal rating, CASOB ([4]; rate 0.2500 kg/ha): 2.0; Postemergence herbicidal rating, TRZAWR ([7]; rate 0.1250 kg/ha): 3.0; Postemergence herbicidal rating, TRZAWR ([7]; rate 0.2500 kg/ha): 3.5; herbicidal rating, CYPSE ([8]; rate 0.0080 kg/ha): 0.0; herbicidal rating, CYPSE ([8]; rate 0.0320 kg/ha): 3.0; herbicidal rating, CYPSE ([8]; rate 0.1250 kg/ha): 4.5; ZEAMX preemergence herbicidal rating (ZEAMX (Corn, Field); Rate 0.0620 kg/ha): 6.0; ZEAMX preemergence herbicidal rating (ZEAMX (Corn, Field); Rate 0.1250 kg/ha): 7.0; ZEAMX preemergence herbicidal rating (ZEAMX (Corn, Field); Rate 0.2500 kg/ha): 8.0
COc1ccsc1-c1nsc2ccc(-n3c(=O)cc(C(F)(F)F)n(C)c3=O)cc12 [Compound 10, 3-[3-(3-methoxy-2-thienyl)-1,2-benzisothiazol-5-yl]-1-methyl-6-(trifluoromethyl)uracil] | 1.5 | 4.5 | 7.0 | 5.0 | 8.5 | 8.0 | 2.0 | 3.0 | 1.0 | 1.0 | 0.0 | 0.0 | 7.0 | 9.0 | 9.0 | 0.5 | 1.0 | 2.5 | 2.5 | 2.8 | Postemergence herbicidal rating, AMBEL ([2]; rate 0.1250 kg/ha): 9.0; Postemergence herbicidal rating, CHEAL ([3]; rate 0.1250 kg/ha): 4.0; Postemergence herbicidal rating, CASOB ([4]; rate 0.1250 kg/ha): 1.0; Postemergence herbicidal rating, TRZAWR ([7]; rate 0.1250 kg/ha): 4.0; herbicidal rating, CYPSE ([8]; rate 0.0320 kg/ha): 0.0; herbicidal rating, CYPSE ([8]; rate 0.1250 kg/ha): 0.0; ZEAMX preemergence herbicidal rating (ZEAMX (Corn, Field); Rate 0.0620 kg/ha): 4.0; ZEAMX preemergence herbicidal rating (ZEAMX (Corn, Field); Rate 0.1250 kg/ha): 6.5; ZEAMX preemergence herbicidal rating (ZEAMX (Corn, Field); Rate 0.2500 kg/ha): 7.0
